Reference: patent publication US10683296B2, “TLR7 agonist trifluoroacetate salt and crystalline form B thereof, preparation methods and uses” (CHIA TAI TIANQING PHARMACEUTICAL GROUP CO., LTD., priority 2016, dated 2020)

Assays:
[1] = Stability tests of crystal form B (high temperature, high humidity, light); assay type: physicochemical; conditions: general statement; no data of Examples 2-4 printed
Protocol: The crystal form B prepared in Example 1 was tested in the accelerated test under high temperature conditions for stability in accordance with Guidelines for the Stability Test of Pharmaceutical Ingredients and Pharmaceutical Preparations (Chinese Pharmacopoeia 2010 Appendix XIXC).
The crystal form B was placed in an open-clean container at 60° C. The samples were taken for test on day 10, day 20 and day 30, respectively. The results were compared with the initial test result on day 0.
The crystal form B prepared in Example 1 was tested in the accelerated test under high humidity conditions for stability in accordance with Guidelines for the Stability Test of Pharmaceutical Ingredients and Pharmaceutical Preparations (Chinese Pharmacopoeia 2010 Appendix XIXC).
The crystal form B was subjected to an accelerated test in a constant temperature and humidity vessel under the conditions of 40° C./75% humidity (open). The samples were taken for test on day 30, day 60 and day 90, respectively. The results were compared with the initial test result on day 0.
The crystal form B prepared in Example 1 under light conditions was tested for stability in accordance with Guidelines for the Stability Test of Pharmaceutical Ingredients and Pharmaceutical Preparations (Chinese Pharmacopoeia 2010 Appendix XIXC).
The crystal form B was placed in an illumination environment of 5000 Lx±500 Lx. […]

[2] = test system: human peripheral blood mononuclear cells (PBMC); assay: Peripheral blood mononuclear cell cytokine stimulating test; assay type: cell-based; conditions: for TNF-α MEC / IFN-α MEC: human PBMC, 24 h, CBA flow cytometry; for IFN-α MEC: lowest drug concentration stimulating the production of 30 pg/mL of IFN-α
Protocol: The purpose of this example is to determine the expression level of cytokines 24 h after stimulation to human peripheral blood mononuclear cells (PBMC) with the compound of formula I.
The cell supernatant was assayed without dilution and the levels of IFN-α were directly determined. The compound of formula was firstly formulated into 20 mM DMSO stock solution and was gradient diluted with cell medium in 10-fold with the total number of 11 diluting points. The compounds in 9 diluting points (the highest concentration was 200 μmol/L) were added into 96-well plate with 50 μL in each well. Fresh human peripheral blood mononuclear cells were inoculated, with 150 μL in each well containing 450,000 cells. The cell culture plate was incubated in an incubator at 37° C., 5% CO2 for 24 h. After incubation, the culture plate was centrifuged at 1200 rpm for 5 min and the supernatant was collected and stored at −20° C. for determination. The determination of cytokine was performed using Cytometric Bead Array (CBA) of BD-Pharmingen on flow cytometer. Using the above determining method, the lowest drug concentration stimulating the production of 30 pg/mL of IFN-α was designated as the MEC value in the cytokine stimulating test.

[3] = biological target: T1, Toll-like receptor 7 (HEK-blue hTLR7 cell) (Homo sapiens, UniProt Q9NYK1); assay: Toll-like receptor 7 in vitro receptor binding activity screen (HEK-blue hTLR7 cell, alkaline phosphatase reporter); assay type: cell-based; conditions: versus control GS-9620
T1 construct: host or cells: HEK-blue hTLR7 cell (HEK293-derived reporter line)
T1 sequence (Q9NYK1 27-1049): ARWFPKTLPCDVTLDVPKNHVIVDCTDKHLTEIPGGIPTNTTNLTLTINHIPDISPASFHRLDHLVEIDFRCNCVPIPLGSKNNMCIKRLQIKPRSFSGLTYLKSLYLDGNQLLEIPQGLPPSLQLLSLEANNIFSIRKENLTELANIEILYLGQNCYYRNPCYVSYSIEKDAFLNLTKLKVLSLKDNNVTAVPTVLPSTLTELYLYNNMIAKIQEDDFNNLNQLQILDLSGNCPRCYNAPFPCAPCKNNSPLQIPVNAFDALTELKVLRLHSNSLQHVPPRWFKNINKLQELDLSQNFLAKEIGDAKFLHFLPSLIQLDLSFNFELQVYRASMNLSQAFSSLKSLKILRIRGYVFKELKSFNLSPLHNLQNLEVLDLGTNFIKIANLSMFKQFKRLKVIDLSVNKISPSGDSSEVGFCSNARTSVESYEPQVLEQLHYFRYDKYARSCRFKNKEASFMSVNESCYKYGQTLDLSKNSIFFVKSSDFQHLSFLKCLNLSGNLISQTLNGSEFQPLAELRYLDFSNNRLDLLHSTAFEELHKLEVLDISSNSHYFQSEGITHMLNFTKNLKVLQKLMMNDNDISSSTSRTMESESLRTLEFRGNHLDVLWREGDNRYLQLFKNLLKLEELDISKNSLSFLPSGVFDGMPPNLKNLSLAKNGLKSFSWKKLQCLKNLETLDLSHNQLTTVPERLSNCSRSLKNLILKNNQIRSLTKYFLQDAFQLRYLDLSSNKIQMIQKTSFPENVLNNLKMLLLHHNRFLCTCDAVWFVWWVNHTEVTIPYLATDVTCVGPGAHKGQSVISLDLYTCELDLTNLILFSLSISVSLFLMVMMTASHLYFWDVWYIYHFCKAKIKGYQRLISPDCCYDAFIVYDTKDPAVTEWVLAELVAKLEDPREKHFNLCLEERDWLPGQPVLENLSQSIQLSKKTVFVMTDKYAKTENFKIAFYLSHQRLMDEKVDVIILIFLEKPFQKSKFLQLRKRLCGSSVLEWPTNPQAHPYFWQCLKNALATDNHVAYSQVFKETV
Protocol: (§1) • HEK-blue hTLR7 cell and HEK-blue hTLR8 cell (available from InvivoGen) • DMEM medium • heat inactivated fetal bovine serum • Anti Mycoplasma reagent Normocin™ • bleomycin • blasticidin
(§2) The structures of GS-9620 and R848 used are as follows, wherein the preparation of GS-9620 could be referred to the process disclosed in US20100143301; R848 was commercially available from ABGENT (IMG-2208, specification: 0.5 mg).
(§3) The compounds were gradient diluted with DMSO in 3-fold using liquid work station POD starting at a concentration of 10 mmol/L and 10 points were diluted (2nd column to 11th column, and each point was duplicated). At 12th column, 1 μL of 5 mg/mL positive compound R848 was added as positive control; and at 1st column, 1 μL of DMSO was added as negative control. Each well contained 1 μL of DMSO. • 2. The cells in culture flask were collected and the cell density was diluted to 250,000 cells/mL. • 3. 200 μL (50,000 cells/well) of cell suspension was added into prepared compound plate and the final concentration of DMSO in each well was 0.5%. • 4. The culture plates containing cells and the compounds were incubated in CO2 incubator for 24 h at 37° C., 5% CO2. • 5. […] After 1 h, the content of alkaline phosphatase in 20 μL of supernatant was determined using Microplate Reader OD650. • 7. […]

[4] = biological target: T2, Toll-like receptor 8 (HEK-blue hTLR8 cell) (Homo sapiens, UniProt Q9NR97); assay: Toll-like receptor 8 in vitro receptor binding activity screen (HEK-blue hTLR8 cell, alkaline phosphatase reporter); assay type: cell-based; conditions: versus control GS-9620
T2 construct: host or cells: HEK-blue hTLR8 cell (HEK293-derived reporter line)
T2 sequence (Q9NR97 27-1041): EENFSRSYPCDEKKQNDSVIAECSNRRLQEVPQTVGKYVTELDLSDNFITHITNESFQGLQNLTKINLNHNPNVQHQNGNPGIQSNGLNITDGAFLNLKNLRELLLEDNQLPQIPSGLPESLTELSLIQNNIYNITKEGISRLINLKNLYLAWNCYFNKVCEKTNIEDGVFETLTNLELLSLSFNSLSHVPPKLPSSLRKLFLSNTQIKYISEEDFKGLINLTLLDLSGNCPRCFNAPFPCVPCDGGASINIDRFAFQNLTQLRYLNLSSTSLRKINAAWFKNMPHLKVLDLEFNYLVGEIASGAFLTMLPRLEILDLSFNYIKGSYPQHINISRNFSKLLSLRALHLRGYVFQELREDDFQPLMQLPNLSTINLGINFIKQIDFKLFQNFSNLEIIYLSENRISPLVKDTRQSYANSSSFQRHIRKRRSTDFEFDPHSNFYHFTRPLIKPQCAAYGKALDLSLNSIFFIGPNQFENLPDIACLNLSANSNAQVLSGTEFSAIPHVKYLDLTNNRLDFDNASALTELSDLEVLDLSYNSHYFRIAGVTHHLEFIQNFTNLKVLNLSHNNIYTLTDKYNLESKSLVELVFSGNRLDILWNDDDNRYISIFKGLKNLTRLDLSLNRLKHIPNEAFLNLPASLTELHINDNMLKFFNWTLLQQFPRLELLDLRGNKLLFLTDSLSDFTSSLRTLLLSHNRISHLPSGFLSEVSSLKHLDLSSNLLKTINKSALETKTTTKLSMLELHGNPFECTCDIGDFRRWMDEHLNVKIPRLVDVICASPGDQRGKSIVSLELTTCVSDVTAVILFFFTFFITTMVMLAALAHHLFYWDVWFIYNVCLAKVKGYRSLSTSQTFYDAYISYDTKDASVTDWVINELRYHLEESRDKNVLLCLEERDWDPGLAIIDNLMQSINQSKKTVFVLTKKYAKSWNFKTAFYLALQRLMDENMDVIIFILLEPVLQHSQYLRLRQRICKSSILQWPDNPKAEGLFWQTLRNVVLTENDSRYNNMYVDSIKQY
Protocol: as §1, §2, §3

SMILES	stability of the crystal form [1]	TNF-α MEC [2] [nM]	IFN-α MEC [2] [nM]	in vitro receptor binding activity to Toll-like receptor 7 compared with the control GS-9620 [3]	TNF-α inducing activity compared with the control GS-9620 ([2]; versus control GS-9620)	in vitro IFN-α inducing activity of PBMCs compared with the control GS-9620 ([2]; versus control GS-9620)	in vitro receptor binding activity to Toll-like receptor 8 compared with the control GS-9620 [4]
CCCCOc1nc(N)c2[nH]cc(Cc3ccc(CN4CCCC4)cc3)c2n1.O=C(O)C(F)(F)F [Crystal Form B of Trifluoroacetate of 2-butoxy-7-(4-(pyrrolidin-1-ylmethyl)benzyl)-5H-pyrrolo[3,2-d]pyrimidin-4-amine]	good stability						
CCCCOc1nc(N)c2c(n1)N(Cc1cccc(CN3CCCC3)c1)CC(=O)N2 [GS-9620, reference compound]		500	50				
CCCCOc1nc(N)c2[nH]cc(Cc3ccc(CN4CCCC4)cc3)c2n1 [The compound of formula I, 2-butoxy-7-(4-(pyrrolidin-1-ylmethyl)benzyl)-5H-pyrrolo[3,2-d]pyrimidin-4-amine]		500	5	higher	comparable	better	lower
